Values joined by “and” are separate entries in the source; they are usually repeats but may differ in a detail not shown here. Equal entries are not always repeated.
How the values were obtained:
[1] = BET active (specific) surface area analysis, nitrogen adsorbate; format: physicochemical; conditions: for Specific surface area: final product of the synthesis, amorphous powder dried under vacuum at 25-30° C.; for Surface area of the sample: after one blending with water and acetone mixture and drying under vacuum at 50-55° C.
Protocol: The analysis of BET is according to the method described as: out gassing a portion of the test sample, about 100 mg at 90° C. for 1 hour at ambient pressure using nitrogen as the adsorbate gas.

[2] = Intrinsic dissolution rate; format: physicochemical; conditions: final product of the synthesis, amorphous powder

Compound: O=C([O-])CC(O)(CC(=O)[O-])C(=O)[O-].[Fe+3] [Ferric Citrate, Iron (III) 2-hydroxypropane-1,2,3-tricarboxylate, reference compound]
- surface area ([1]; starting Ferric Citrate before treatment with water and acetone mixture): 30.0 Sq.m/g and 28.6 Sq.m/g

Compound: Ferric Citrate [Example III]
- Specific surface area [1]: 12.0 sq.m/g

Compound: Ferric Citrate [Example II]
- Specific surface area [1]: 10.6 sq.m/g

Compound: Ferric Citrate [Example IV]
- Specific surface area [1]: 11.0 sq.m/g
- Intrinsic dissolution rate [2]: 0.231 mg/sq.cm/min

Compound: Ferric Citrate [Example I]
- Specific surface area [1]: 12.36 sq.m/g

Compound: Ferric Citrate [Example VII]
- Surface area of the sample [1]: 20.0 sq.m/g
- surface area ([1]; after repeating the same water and acetone process): 12.5 sq.m/g

Compound: Ferric Citrate [Example VI]
- Surface area of the sample [1]: 10.3 sq.m/g

Compound: Ferric Citrate [Example V]
- Specific surface area [1]: 7.8 sq.m/g
- Intrinsic dissolution rate [2]: 0.31 mg/sq.cm/min

— patent US10882813B2, “Method for the synthesis of ferric oraganic compounds” (Biophore India Pharmaceuticals Pvt. Ltd., priority 2014, dated 2021)
